Laboratory results: patent publication US8975400B2, “2,3-dihydroimidazo[1, 2-c] pyrimidin-5(1 H)-one compounds use as LP-PLA2 inhibitors” (Glaxo Group Limited, priority 2011, dated 2015)
Structures can show the parent of a compound that is named as a salt.

Target: T1, recombinant human Lp-PLA2 (Homo sapiens, UniProt Q13093)
T1 sequence (Q13093 22-441): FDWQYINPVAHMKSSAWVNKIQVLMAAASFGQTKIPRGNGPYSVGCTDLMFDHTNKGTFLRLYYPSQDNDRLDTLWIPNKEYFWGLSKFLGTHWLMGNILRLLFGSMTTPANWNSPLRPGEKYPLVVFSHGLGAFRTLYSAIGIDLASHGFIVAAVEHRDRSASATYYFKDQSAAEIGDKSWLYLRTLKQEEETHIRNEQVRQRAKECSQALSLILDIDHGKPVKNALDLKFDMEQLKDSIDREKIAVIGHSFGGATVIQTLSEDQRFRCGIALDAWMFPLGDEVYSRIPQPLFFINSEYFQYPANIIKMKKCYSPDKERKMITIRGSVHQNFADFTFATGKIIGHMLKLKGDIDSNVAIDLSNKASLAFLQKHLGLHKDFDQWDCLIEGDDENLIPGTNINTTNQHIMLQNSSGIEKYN
Test: Recombinant human Lp-PLA2 assay (rhLp-PLA2, PED6 assay)
Type: biochemical
Conditions: recombinant human Lp-PLA2, PED6 substrate; upper limit for pIC50 in this assay is 9.3
Text: (1) Recombinant Human Lp-PLA2 Assay (rhLp-PLA2) (Also Referred to as “PED6” Assay)
N-((6-(2,4-dinitrophenyl)amino)-hexanoyl)-2-(4,4-difluoro-5,7-dimethyl-4-bora-3a,4a-diaza-s-indacene-3-pentanoyl)-1-hexadecanoyl-sn-glycero-3-phosphoethanolamine, triethylammonium salt (PED6) is a commercially available fluorescently-labeled phospholipid, which is commercially available from Invitrogene and Molecular Probes. There is a quenching […] and a Bodipy fluorescein (FL) group in the sn2 position. Upon cleavage with Lp-PLA2, the Bodipy FL group is liberated and then may result in an increase in fluorescence. Inhibitors of Lp-PLA2 therefore prevent this cleavage and no fluorescent increase is observed.
The PED6 assay was run as an unquenched 10 μL assay. The source plate containing the compounds to be tested was prepared by making 1:3 (by volume) serial dilution of the compounds within DMSO on 384-well microplate. Then, 0.01 μL of the compounds on compound source plate were transferred into 384 well Greiner 784076 (black) plates using ECHO liquid dispenser. 5 µL of recombinant human Lp-PLA2 enzyme (4 nM (or 110 pM) rhLp-PLA2 in assay buffer of 50 mM HEPES, pH 7.4, 150 mM NaCl, 1 mM CHAPS) was added to each well of the plate. Plates were centrifuged for 10 sec at 500 rpm. After 30 minutes preincubation, 5 µL of substrate (4 μM (or 5 μM) PED6 [from 5 mM DMSO stock] in assay buffer of 50 mM HEPES, pH 7.4, 150 mM NaCl, 1 mM CHAPS) was added to 384 well Greiner 784076 (black) plates. Plates were centrifuged for 10 sec at 500 rpm. The plate was covered to protect it from light and incubated for 20 min at room temperature. The plates were read for fluorescence intensity at ex: 480/em: 540 using ViewLux microplate imager for Envision spectrofluroimeters pIC50 data, curve and QC analysis was conducted by using XL fit module in Excel.
The compounds described below were tested generally according to the PED6 assay described above.

**Q.** For `O=c1nc(OCc2ccc(Oc3ccc(Cl)c(Cl)c3)c(F)c2)cc2n1CCN2` [Example 98, 7-((4-(3,4-dichlorophenoxy)-3-fluorobenzyl)oxy)-2,3-dihydroimidazo[1,2-c]pyrimi-din-5(1H)-one], which IC50 is on record?
**A.** ≤ 0.01 µM

**Q.** With `N#Cc1cc(COc2cc3n(c(=O)n2)CCN3)ccc1Oc1cccc(C(F)(F)F)c1` [Example 112, 5-(((5-oxo-1,2,3,5-tetrahydroimidazo[1,2-c]pyrimidin-7-yl)oxy)methyl)-2-(3-(trifluoromethyl)phenoxy)benzonitrile] as the molecule, how does the IC50 read?
**A.** ≤ 0.01 µM

**Q.** With `N#Cc1cc(COc2cc3n(c(=O)n2)CCN3)ccc1Oc1cnc(F)c(F)c1` [Example 117, 2-((5,6-difluoropyridin-3-yl)oxy)-5-(((5-oxo-1,2,3,5-tetrahydroimidazo[1,2-c]pyrimidin-7-yl)oxy)methyl)benzonitrile] as the molecule, how does the IC50 read?
**A.** ≤ 0.01 µM

**Q.** How did the IC50 turn out when `O=c1nc(OCc2ccc(Oc3cc(F)cc(C(F)(F)F)c3)c(F)c2)cc2n1CCN2` [Example 151, 7-((3-fluoro-4-(3-fluoro-5-(trifluoromethyl)phenoxy)benzyl)oxy)-2,3-dihydroim-idazo[1,2-c]pyrimidin-5(1H)-one] was run?
**A.** ≤ 0.001 µM

**Q.** With `CN1CCn2c1cc(OCc1cc(F)c(Oc3ccc(F)cc3)c(F)c1)nc2=O` [Example E12, 7-((3,5-difluoro-4-(4-fluorophenoxy)benzyl)oxy)-1-methyl-2,3-dihydroimidazo[1,2-c]pyrimidin-5(1H)-one] as the molecule, how does the IC50 read?
**A.** ≤ 0.01 µM

**Q.** With `CN1CCn2c1cc(OCc1ccc(F)c(Oc3cccc(Cl)c3)c1)nc2=O` [Example E16, 7-((3-(3-chlorophenoxy)-4-fluorobenzyl)oxy)-1-methyl-2,3-dihydroimidazo[1,2-c]pyrimidin-5(1H)-one] as the molecule, how does the IC50 read?
**A.** ≤ 0.01 µM

**Q.** `CN1CCn2c1cc(OCc1ccc(Oc3ccc(F)cc3)c(C#N)c1)nc2=O` [Example E22, 2-(4-fluorophenoxy)-5-(((1-methyl-5-oxo-1,2,3,5-tetrahydroimidazo[1,2-c]pyrimidin-7-yl)oxy)methyl)benzonitrile] was tested. Which IC50 did it give?
**A.** ≤ 0.01 µM

**Q.** How did the IC50 turn out when `CN1CCn2c1cc(OCc1ccc(Oc3cc(F)cc(F)c3)c(F)c1)nc2=O` [Example E43, 7-((4-(3,5-difluorophenoxy)-3-fluorobenzyl)oxy)-1-methyl-2,3-dihydroimidazo[1,2-c]pyrimidin-5(1H)-one, trifluoroacetic acid salt] was run?
**A.** ≤ 0.01 µM

**Q.** For `O=c1nc(OCc2ccc(Oc3cccc(C(F)(F)F)c3)c(Cl)c2)cc2n1CCN2` [Example E61, 7-((3-chloro-4-(3-(trifluoromethyl)phenoxy)benzyl)oxy)-2,3-dihydroimidazo[1,2-c]pyrimidin-5(1H)-one], which IC50 is on record?
**A.** ≤ 0.01 µM

**Q.** How did the IC50 turn out when `CN1CCn2c1cc(OCc1ccc(Oc3cccc(C#N)c3)c(F)c1)nc2=O` [Example E63, 3-(2-fluoro-4-(((1-methyl-5-oxo-1,2,3,5-tetrahydroimidazo[1,2-c]pyrimidin-7-yl)oxy)methyl)phenoxy)benzonitrile, trifluoroacetic acid salt] was run?
**A.** ≤ 0.01 µM

Target: T2, Lp-PLA2 in human plasma (Homo sapiens, UniProt Q13093)
T2 construct: This assay may detect the activity of Lp-PLA2 in human plasma; from tissue; host or cells: pooled human plasma
T2 sequence (Q13093 22-441): T1 sequence (Q13093 22-441)
Test: Lp-PLA2 human plasma assay (Thio-PAF assay)
Type: biochemical
Conditions: pooled human plasma, 2-thio-PAF substrate; read-out: pIC50 in the thio-PAF assay (converted)
Text: (3) Lipoprotein-Associated Phospholipase A2 (Lp-PLA2) Human Plasma Assay (Also Referred to as “Thio-PAF Assay”)
The human plasma assay utilizes a thioester analog of PAF (phosphatidylcholine), where hydrolysis yields to the formation of a phospholipid containing a free thiol group. The amount of thiol is quantitated continuously by reacting with CPM (7-diethylamino-3-(4′-maleimidylphenyl)-4-methylcoumarin), a maleimide which increases in fluoresence after Michael addition of thiols. This assay may detect the activity of Lp-PLA2 in human plasma, as determined by specific inhibition by Lp-PLA2 inhibitors.
The thio-PAF assay was run as a quenched 15 μL assay. Compounds source plate was prepared by making 1:3 (by volume) serial dilution of the compounds into pure DMSO on 384-well microplate. 0.01 μL of compounds on compound source plate were transferred to 384 well Greiner 784076 (black) low-volume plates by ECHO liquid dispenser. 8 μL pooled human plasma, which was previously aliquoted and frozen, was added. Plates were centrifuged for 10 sec at 500 rpm. After 30 minutes preincubation, 2 μL of substrate solution comprising 2.5 mM 2-thio-PAF [from ethanol stock], 32 μM CPM [from a DMSO stock] and 3.2 mM NEM (N-ethylmaleimide) [made fresh daily in DMSO] in assay buffer of 50 mM HEPES, pH 7.4, 150 mM NaCl, 1 mM CHAPS was added to 384 well Greiner 784076 (black) low-volume plates by BRAVO liquid handling station. After 2 mins, reaction was quenched with 5 μL of 5% aqueous trifluoroacetic acid (TFA). Plates were covered to protect from light and incubated for 40 min at room temperature. Plates were read at ex: 380/em: 485 using-Envision microplate reader. pIC50 data, curve and QC analysis was conducted by using XLFit module in Excel.

**Q.** With `CN1CCn2c1cc(OCc1ccc(Oc3ccc(C#N)nc3)c(C#N)c1)nc2=O` [Example 108, 5-(2-cyano-4-(((1-methyl-5-oxo-1,2,3,5-tetrahydroimidazo[1,2-c]pyrimidin-7-yl)oxy)methyl)phenoxy)picolinonitrile] as the molecule, how does the IC50 read?
**A.** ≤ 1 µM

**Q.** For `CN1CCn2c1cc(OCc1ccc(Oc3cncc(F)c3)c(C#N)c1)nc2=O` [Example 137, 2-((5-fluoropyridin-3-yl)oxy)-5-(((1-methyl-5-oxo-1,2,3,5-tetrahydroimidazo[1,2-c]pyrimidin-7-yl)oxy)methyl)benzonitrile], which IC50 is on record?
**A.** ≤ 1 µM

**Q.** `CN1CCn2c1cc(OCc1ccc(Oc3cncc(C#N)c3)c(C#N)c1)nc2=O` [Example 138, 5-(2-cyano-4-(((l-methyl-5-oxo-1,2,3,5-tetrahydroimidazo[1,2-c]pyrimidin-7-yl)oxy)methyl)phenoxy)nicotinonitrile] was tested. Which IC50 did it give?
**A.** ≤ 1 µM

**Q.** `CN1CCn2c1cc(OCc1ccc(Oc3cncc(C#N)c3)c(F)c1)nc2=O` [Example 141, 5-(2-fluoro-4-(((1-methyl-5-oxo-1,2,3,5-tetrahydroimidazo[1,2-c]pyrimidin-7-yl)oxy)methyl)phenoxy)nicotinonitrile] was tested. Which IC50 did it give?
**A.** ≤ 1 µM

**Q.** For `CN1CCn2c1cc(OCc1ccc(F)c(C#N)c1)nc2=O` [Example 146, 2-fluoro-5-(((l-methyl-5-oxo-1,2,3,5-tetrahydroimidazo[1,2-c]pyrimidin-7-yl)oxy)methyl)benzonitrile], which IC50 is on record?
**A.** ≤ 1 µM

**Q.** With `CN1CCn2c1cc(OCc1ccc(F)c(F)c1)nc2=O` [Example E7, 7-((3,4-difluorobenzyl)oxy)-1-methyl-2,3-dihydroimidazo[1,2-c]pyrimidin-5(1H)-one] as the molecule, how does the IC50 read?
**A.** ≤ 1 µM

**Q.** `CN1CCn2c1cc(OCc1cc(F)c(F)c(F)c1)nc2=O` [Example E17, 1-methyl-7-((3,4,5-trifluorobenzyl)oxy)-2,3-dihydroimidazo[1,2-c]pyrimidin-5(1H)-one] was tested. Which IC50 did it give?
**A.** ≤ 1 µM

**Q.** For `CN1CCn2c1cc(OCc1ccc(Oc3cnc(C(F)(F)F)nc3)c(C#N)c1)nc2=O` [Example E31, 5-(((l-methyl-5-oxo-1,2,3,5-tetrahydroimidazo[1,2-c]pyrimidin-7-yl)oxy)methyl)-2-((2-(trifluoromethyl)pyrimidin-5-yl)oxy)benzonitrile], which IC50 is on record?
**A.** ≤ 1 µM

**Q.** For `CN1CCn2c1cc(OCc1cccc(C#N)c1)nc2=O` [Example E33, 3-(((1-methyl-5-oxo-1,2,3,5-tetrahydroimidazo[1,2-c]pyrimidin-7-yl)oxy)meth-yl)benzonitrile], which IC50 is on record?
**A.** ≤ 1 µM

**Q.** How did the IC50 turn out when `CN1CCn2c1cc(OCc1ccc(Oc3ccc(F)c(Cl)c3)c(C#N)c1)nc2=O` [Example E39, 2-(3-chloro-4-fluorophenoxy)-5-(((1-methyl-5-oxo-1,2,3,5-tetrahydroimidazo[1,2-c]pyrimidin-7-yl)oxy)methyl)benzonitrile, trifluoroacetic acid salt] was run?
**A.** ≤ 1 µM

**Q.** For `CC(C)N1CCn2c1cc(OCc1ccc(F)c(F)c1)nc2=O` [Example E47, 7-((3,4-difluorobenzyl)oxy)-1-isopropyl-2,3-dihydroimidazo[1,2-c]pyrimidin-5(1H)-one, trifluoroacetic acid salt], which IC50 is on record?
**A.** ≤ 1 µM

**Q.** `Cc1ccc(Oc2ccc(COc3cc4n(c(=O)n3)CCN4C)cc2C#N)cn1` [Example E56, 5-(((1-methyl-5-oxo-1,2,3,5-tetrahydroimidazo[1,2-c]pyrimidin-7-yl)oxy)methyl)-2-((6-methylpyridin-3-yl)oxy)benzonitrile, trifluoroacetic acid salt] was tested. Which IC50 did it give?
**A.** ≤ 1 µM

**Q.** Which IC50 does the source give for `N#Cc1cccc(COc2cc3n(c(=O)n2)CCN3)c1` [Example E60, 3-(((5-oxo-1,2,3,5-tetrahydroimidazo[1,2-c]pyrimidin-7-yl)oxy)methyl)benzonitrile] here?
**A.** ≤ 1 µM

**Q.** Which IC50 does the source give for `O=c1nc(OCc2ccc(F)c(F)c2)cc2n1CCN2` [Example E68, 7-((3,4-difluorobenzyl)oxy)-2,3-dihydroimidazo[1,2-c]pyrimidin-5(1H)-one] here?
**A.** ≤ 1 µM
